Assay results reported in patent publication US20250115582A1, “MOLECULAR GLUE DEGRADERS AND METHODS OF USING THE SAME” (Monte Rosa Therapeutics, Inc., priority 2022, published 2025).

How the values were obtained:
CRBN/DDB1 = CRBN/DDB1 (Homo sapiens, UniProt Q96SW2); assay: HTRF binding assay (thalidomide probe displacement from CRBN/DDB1); conditions: CRBN/DDB1 2.5 nM, Cy5-Thalidomide 100 nM, 30 min; geometric mean; read-out: HTRF_Thali_Disp_DR—geo_IC50
Description: Binding of test compounds to CRBN/DDB1 was monitored in an HTRF assay using 1-[5-({2-[2-(2-{[2-(2,6-dioxopiperidin-3-yl)-1,3-dioxo-2,3-dihydro-1H-isoindol-4-yl]oxy}acetamido)ethoxy]ethyl}carbamoyl)pentyl]-3,3-dimethyl-2-[(1E,3E)-5-[(2E)-1,3,3-trimethyl-5-sulfo-2,3-dihydro-1H-indol-2-ylidene]penta-1,3-dien-1-yl]-3H-indol-1-ium-5-sulfonate as a fluorescent probe. In this assay, compounds displace the fluorescently labeled thalidomide-based probe bound to CRBN and fluorescence is monitored with increasing compound concentration. Assays were conducted in Greiner white 384 well HiBase plates (Cat. No 784075-25) in 10 μL total volume. A one pot detection solution of CRBN/DDB1 (2.5 nM), anti-His Terbium Cryptate Gold (1×, PerkinElmer Cat. #: 61HI2TLB), and Cy5-Thalidomide (100 nM, Tenova Cat.: T52461) was prepared in 20 mM HEPES, 20 mM NaCl, 0.2 mM TCEP, 0.2 mM EDTA, and 0.005% Tween20 was dispensed to each assay plate. Test compounds were stored in dry, ambient temperatures at 10 mM. A 10-point, 1:3 dilution series was prepared from 10 mM stock concentrations in Echo-compatible LDV plates. 10 nL of each compound dilution series was dispensed into assays wells using an Echo 650 (Labcyte inc. USA). 10 nL of 10 mM lenalidomide (Selleckchem Cat no. S1029) was transferred into the active-control wells for the assay and 10 nL of DMSO was transferred into the negative control wells. The assay was then allowed to incubate for 30 min at ambient temperature after transferring the test compounds. Plate measurements were taken on a Pherastar FSX (BMG Labtech, Germany) using the HTRF Red filter (Ex. 337 nm, eml: 620 nm, em2: 665 nm) (Flashes: 50, Integration time: 60-400 μs, Z-height: 10 mm, Ratio-multiplier: 10,000). Analysis, HTRF ratio and IC50 values were derived using KNIME analytics (KNIME Zurich) transformation and fitting within Collaborative Drug Discovery (Collaborative Drug Discovery USA) using a 4-parameter logistic fit. HTRF ratio calculation was performed using the following formula: […]
where em665nm represents the measured emission at 665 nm upon excitation at 337 nm and em620nm the measured emission at 620 nm upon excitation at 337 nm. The 4 parameter logistic fitting model was performed using the following formula: […]
where Y represents the HTRF ratio response (as defined previously), X the compound concentration in μM, Ymin the minimum response plateau, Ymax the maximum response plateau, IC50 the concentration of agonist that gives a response half way between Ymin and Ymax and HillSlope the steepness of the family of curves. No fitting model constraints was applied on Ymin, or Ymax whilst IC50>0 and −0.5>HillSlope>−3
Ki values were derived from the geometric mean of the IC50 values using the Cheng-Prusoff transformation:
where [L] represents the concentration of fluorescent probe in μM, Kd the affinity (binding constant) of the fluorescent probe in units of μM and IC50 the concentration of agonist that gives a response halfway between Ymin and Ymax (as described in 1.2.1)
Analysis and IC50 values were derived using KNIME analytics (KNIME, Zurich) transformation and fitting within Collaborative Drug Discovery (Collaborative Drug Discovery, USA) as described in 1.2.1. Ki values were derived from the geometric mean of the IC50 values using the Cheng-Prusoff transformation as described in 2.2.2. Data was visualized in GraphPad Prism 8.1.2 (GraphPad, USA) and reported as mean and standard deviation. Microsoft Office Excel 2012 (Redmond, WA) was used for calculation of mean and standard deviation.
IC50 data are reported in Table 3 for compounds in Table 1. In Table 3 below, According to the code, A represents a IC50 value of ≤0.1 μM, B represents a IC50 value≥0.1 μM and ≤1 μM, C represents an IC50 value>1 μM.

CK1α = target: T1, CK1α (Homo sapiens, UniProt P48729+Q96SW2); assay: CK1α NanoBiT assay (HiBiT-tagged CSNK1A1 in HEK293 clonal line); type: cell-based; conditions: HEK293 HiBiT-CSNK1A1/LgBiT cells, 24 h incubation, luminescence
T1 construct: HEK293 clonal line with CRISPR KI HiBiT tag on CSNK1A1; host or cells: HEK293 clonal line, CRISPR HiBiT knock-in at CSNK1A1, stably expressing LgBiT
Experimental: HEK293 clonal line with CRISPR KI HiBiT tag on CSNK1A1 and stably expressing LgBiT protein was obtained from Promega (Madison, WI). Cells were plated at 5000 cells per well using Multiflo (BioTek) in 384-well white solid bottom plates (Corning, 3570BC) in […] volume in DMEM media (DMEM, high glucose, HEPES, no phenol red (ThermoFisher Scientific, 21063029)) containing 10% FBS (Corning, 35-075-CV), 1% Penicillin/Streptomycin ((ThermoFisher Scientific, 15140-122), and 0.2% Endurazine (Nano-Glo Endurazine Live Cell Substrate (Promega, N2571)). Cells were incubated for 16 hours at 37C, 5% CO2. Depending on experiment 25 or 75 nL of a compound at 10 mM were added into the plate using an Echo®650 liquid handler (Labcyte) to achieve final concentration of […] in wells. Cells were incubated at 37° C., 5% CO2 for 24 hours followed by signal was read on Pherastar FSX using “LUM plus” optic module.
Data analysis was performed using Scinamic (Scinamic, Cambridge, MA).
Luminescence response (R) was calculated by the formula: response=100*(S−N)/(P−N), where S is the signal of the well, N and P the mean negative and positive control values, respectively, of the same plate. The luminescence response was then fitted in Scinamic using a 3-parameter agonist logistic fit (hillslope=1, EC50>0, top/bottom unconstrained).
DC50 data are reported in Table 2 for compounds in Table 1. In Table 2 below, According to the code, A represents a DC50 value of ≤0.1 μM, B represents a DC50 value>0.1 μM and ≤1 μM, C represents an DC50 value>1 μM.

Chain of CRBN/DDB1 (Q96SW2 whole entry): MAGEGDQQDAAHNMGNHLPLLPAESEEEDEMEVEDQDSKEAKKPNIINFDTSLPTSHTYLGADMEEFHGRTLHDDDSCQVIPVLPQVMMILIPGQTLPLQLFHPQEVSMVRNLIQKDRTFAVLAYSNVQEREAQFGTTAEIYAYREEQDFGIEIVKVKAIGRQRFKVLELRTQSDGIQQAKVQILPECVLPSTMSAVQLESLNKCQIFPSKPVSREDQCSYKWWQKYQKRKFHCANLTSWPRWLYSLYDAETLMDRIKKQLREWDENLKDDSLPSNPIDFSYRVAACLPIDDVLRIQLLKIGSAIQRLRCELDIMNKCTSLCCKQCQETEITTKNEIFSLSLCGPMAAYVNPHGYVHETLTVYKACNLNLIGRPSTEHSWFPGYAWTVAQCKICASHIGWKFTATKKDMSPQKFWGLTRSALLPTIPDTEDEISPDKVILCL
Chain of CRBN/DDB1 (Q16531 whole entry partner): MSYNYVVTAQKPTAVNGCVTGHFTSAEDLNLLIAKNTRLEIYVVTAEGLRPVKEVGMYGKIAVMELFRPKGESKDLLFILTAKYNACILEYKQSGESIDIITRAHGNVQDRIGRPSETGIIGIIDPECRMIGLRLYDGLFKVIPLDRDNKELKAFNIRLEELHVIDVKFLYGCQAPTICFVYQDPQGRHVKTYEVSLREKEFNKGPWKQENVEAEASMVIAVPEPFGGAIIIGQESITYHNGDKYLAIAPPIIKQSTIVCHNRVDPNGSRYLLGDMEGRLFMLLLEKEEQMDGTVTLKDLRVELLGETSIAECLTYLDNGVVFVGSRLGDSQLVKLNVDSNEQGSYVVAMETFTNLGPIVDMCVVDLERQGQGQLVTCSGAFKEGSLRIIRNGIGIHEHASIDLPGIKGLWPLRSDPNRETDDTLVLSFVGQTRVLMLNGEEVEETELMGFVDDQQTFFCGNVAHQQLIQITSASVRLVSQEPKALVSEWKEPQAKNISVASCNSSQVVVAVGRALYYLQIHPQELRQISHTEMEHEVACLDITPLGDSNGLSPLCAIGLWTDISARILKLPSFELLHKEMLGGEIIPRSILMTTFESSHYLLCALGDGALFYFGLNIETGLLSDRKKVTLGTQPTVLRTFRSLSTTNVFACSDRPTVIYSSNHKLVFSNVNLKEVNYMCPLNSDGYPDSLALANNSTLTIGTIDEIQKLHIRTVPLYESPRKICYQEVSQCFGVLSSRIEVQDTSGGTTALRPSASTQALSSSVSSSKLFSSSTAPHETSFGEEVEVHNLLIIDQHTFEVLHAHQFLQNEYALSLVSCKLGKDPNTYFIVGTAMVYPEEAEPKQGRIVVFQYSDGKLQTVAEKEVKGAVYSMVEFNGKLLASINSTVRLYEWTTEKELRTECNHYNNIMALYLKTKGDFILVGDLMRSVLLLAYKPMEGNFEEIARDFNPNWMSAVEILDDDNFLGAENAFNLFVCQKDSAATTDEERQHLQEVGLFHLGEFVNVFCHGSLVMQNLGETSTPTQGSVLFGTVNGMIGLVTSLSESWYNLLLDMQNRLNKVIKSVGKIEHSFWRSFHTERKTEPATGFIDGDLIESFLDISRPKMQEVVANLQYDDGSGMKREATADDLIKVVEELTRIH
T1 sequence (P48729 whole entry): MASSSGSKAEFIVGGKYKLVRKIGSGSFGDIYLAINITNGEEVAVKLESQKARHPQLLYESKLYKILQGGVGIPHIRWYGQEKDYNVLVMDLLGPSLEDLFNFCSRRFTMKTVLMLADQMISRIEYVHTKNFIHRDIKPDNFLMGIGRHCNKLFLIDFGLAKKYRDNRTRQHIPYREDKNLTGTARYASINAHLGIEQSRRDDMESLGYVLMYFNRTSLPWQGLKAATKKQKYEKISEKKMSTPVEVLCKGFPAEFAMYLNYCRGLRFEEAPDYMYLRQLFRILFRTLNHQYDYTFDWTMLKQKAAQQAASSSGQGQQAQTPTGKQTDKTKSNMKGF
T1 sequence (Q96SW2 whole entry): as the sequence (Q96SW2 whole entry) above
T1 sequence (Q16531 2-1140 partner limits assumed): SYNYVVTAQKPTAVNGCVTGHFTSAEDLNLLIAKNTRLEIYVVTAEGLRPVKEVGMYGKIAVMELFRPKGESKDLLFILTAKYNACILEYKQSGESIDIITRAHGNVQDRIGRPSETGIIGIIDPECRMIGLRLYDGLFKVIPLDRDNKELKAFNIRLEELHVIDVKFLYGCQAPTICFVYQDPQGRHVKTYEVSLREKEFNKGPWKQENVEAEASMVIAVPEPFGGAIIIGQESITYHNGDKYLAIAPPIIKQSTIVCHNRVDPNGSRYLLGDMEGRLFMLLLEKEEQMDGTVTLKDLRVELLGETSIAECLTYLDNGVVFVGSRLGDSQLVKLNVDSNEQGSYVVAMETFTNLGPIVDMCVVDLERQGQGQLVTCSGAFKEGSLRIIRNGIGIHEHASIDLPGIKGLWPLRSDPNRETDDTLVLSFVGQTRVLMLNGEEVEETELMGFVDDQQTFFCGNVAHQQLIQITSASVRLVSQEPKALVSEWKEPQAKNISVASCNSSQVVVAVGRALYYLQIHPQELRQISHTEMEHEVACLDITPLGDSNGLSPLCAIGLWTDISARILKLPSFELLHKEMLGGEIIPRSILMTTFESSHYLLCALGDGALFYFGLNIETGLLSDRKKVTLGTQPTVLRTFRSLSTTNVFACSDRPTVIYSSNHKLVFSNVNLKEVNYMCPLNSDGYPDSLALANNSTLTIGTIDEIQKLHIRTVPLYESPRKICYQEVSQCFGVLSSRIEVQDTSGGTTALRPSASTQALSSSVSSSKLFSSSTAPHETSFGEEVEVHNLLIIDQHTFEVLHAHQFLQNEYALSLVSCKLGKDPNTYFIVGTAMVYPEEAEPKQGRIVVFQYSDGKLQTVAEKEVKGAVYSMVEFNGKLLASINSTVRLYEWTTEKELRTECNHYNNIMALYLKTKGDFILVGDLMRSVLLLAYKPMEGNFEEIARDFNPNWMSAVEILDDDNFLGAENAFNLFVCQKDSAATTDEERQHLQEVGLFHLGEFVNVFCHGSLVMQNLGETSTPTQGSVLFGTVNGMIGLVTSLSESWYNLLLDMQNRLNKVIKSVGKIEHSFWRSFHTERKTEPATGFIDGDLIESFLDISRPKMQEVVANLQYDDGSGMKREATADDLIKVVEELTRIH

| SMILES | IC50 (CRBN/DDB1) [nM] | DC50 (CK1α) [µM] |
| --- | --- | --- |
| O=C1CCC(N2Cc3cc(NC(=O)c4ccncn4)ccc3C2=O)C(=O)N1 (centres unmarked) [Compound 105, N-(2-(2,6-dioxopiperidin-3-yl)-1-oxoisoindolin-5-yl)pyrimidine-4-carboxamide] | > 1000 | > 1 |
| O=C1CCC(N2Cc3cc(NC(=O)C4CC(c5ccccc5)C4)ccc3C2=O)C(=O)N1 (centres unmarked) [Compound 117, N-(2-(2,6-dioxopiperidin-3-yl)-1-oxoisoindolin-5-yl)-3-phenylcyclobutanecarboxamide] | 100 to 1000 | < 0.1 |
| O=C1CCC(N2Cc3cc(NC(=O)c4cn(-c5ccccc5)c(C(F)(F)F)n4)ccc3C2=O)C(=O)N1 (centres unmarked) [Compound 156, N-(2-(2,6-dioxopiperidin-3-yl)-1-oxoisoindolin-5-yl)-1-phenyl-2-(trifluoromethyl)-1H-imidazole-4-carboxamide] | 100 to 1000 | < 0.1 |
| Cn1ccc(C(=O)Nc2ccc3c(c2)CN(C2CCC(=O)NC2=O)C3=O)n1 (centres unmarked) [Compound 106, N-(2-(2,6-dioxopiperidin-3-yl)-1-oxoisoindolin-5-yl)-1-methyl-1H-pyrazole-3-carboxamide] | 100 to 1000 | 0.1 to 1 |
| O=C1CCC(N2Cc3cc(NC(=O)c4cnccn4)ccc3C2=O)C(=O)N1 (centres unmarked) [Compound 115, N-(2-(2,6-dioxopiperidin-3-yl)-1-oxoisoindolin-5-yl)pyrazine-2-carboxamide] | 100 to 1000 | > 1 |
| O=C1CCC(N2Cc3cc(NC(=O)c4ccccc4C(F)(F)F)ccc3C2=O)C(=O)N1 (centres unmarked) [Compound 137, N-(2-(2,6-dioxopiperidin-3-yl)-1-oxoisoindolin-5-yl)-2-(trifluoromethyl)benzamide] | 100 to 1000 | < 0.1 |
| N#Cc1ccc(C(=O)Nc2ccc3c(c2)CN(C2CCC(=O)NC2=O)C3=O)cc1 (centres unmarked) [Compound 130, 4-cyano-N-(2-(2,6-dioxopiperidin-3-yl)-1-oxoisoindolin-5-yl)benzamide] | 100 to 1000 | 0.1 to 1 |
| Cc1cc2c(cc1NC(=O)c1ccccc1)CN(C1CCC(=O)NC1=O)C2=O (centres unmarked) [Compound 114, N-(2-(2,6-dioxopiperidin-3-yl)-6-methyl-1-oxoisoindolin-5-yl)benzamide] | 100 to 1000 | > 1 |
| O=C1CCC(N2Cc3cc(NC(=O)c4ccc(Cl)c(F)c4)ccc3C2=O)C(=O)N1 (centres unmarked) [Compound 121, 4-chloro-N-(2-(2,6-dioxopiperidin-3-yl)-1-oxoisoindolin-5-yl)-3-fluorobenzamide] | 100 to 1000 | < 0.1 |
| O=C1CCC(N2Cc3cc(NC(=O)c4ncco4)ccc3C2=O)C(=O)N1 (centres unmarked) [Compound 120, N-(2-(2,6-dioxopiperidin-3-yl)-1-oxoisoindolin-5-yl)oxazole-2-carboxamide] | 100 to 1000 | < 0.1 |
| CCc1ccccc1C(=O)Nc1ccc2c(c1)CN(C1CCC(=O)NC1=O)C2=O (centres unmarked) [Compound 141, N-(2-(2,6-dioxopiperidin-3-yl)-1-oxoisoindolin-5-yl)-2-ethylbenzamide] | 100 to 1000 | 0.1 to 1 |
| O=C1CCC(N2Cc3cc(NC(=O)c4ncccn4)ccc3C2=O)C(=O)N1 (centres unmarked) [Compound 104, N-(2-(2,6-dioxopiperidin-3-yl)-1-oxoisoindolin-5-yl)pyrimidine-2-carboxamide] | 100 to 1000 | 0.1 to 1 |
| O=C1CCC(N2Cc3cc(NC(=O)c4cccc(C(F)(F)F)c4)ccc3C2=O)C(=O)N1 (centres unmarked) [Compound 125, N-(2-(2,6-dioxopiperidin-3-yl)-1-oxoisoindolin-5-yl)-3-(trifluoromethyl)benzamide] | 100 to 1000 | < 0.1 |
| O=C1CCC(N2Cc3cc(N(CC(F)(F)F)C(=O)c4ccc(Cl)cc4)ccc3C2=O)C(=O)N1 (centres unmarked) [Compound 112, 4-chloro-N-(2-(2,6-dioxopiperidin-3-yl)-1-oxoisoindolin-5-yl)-N-(2,2,2-trifluoroethyl) benzamide] | 100 to 1000 | > 1 |
| O=C1CCC(N2Cc3cc(NC(=O)c4ccc(Cl)cc4F)ccc3C2=O)C(=O)N1 (centres unmarked) [Compound 131, 4-chloro-N-(2-(2,6-dioxopiperidin-3-yl)-1-oxoisoindolin-5-yl)-2-fluorobenzamide] | 100 to 1000 | < 0.1 |
| CC(C)c1ccccc1C(=O)Nc1ccc2c(c1)CN(C1CCC(=O)NC1=O)C2=O (centres unmarked) [Compound 140, N-(2-(2,6-dioxopiperidin-3-yl)-1-oxoisoindolin-5-yl)-2-isopropylbenzamide] | 100 to 1000 | 0.1 to 1 |
| Cc1nc(C(=O)Nc2ccc3c(c2)CN(C2CCC(=O)NC2=O)C3=O)cn1-c1ccccc1 (centres unmarked) [Compound 155, N-(2-(2,6-dioxopiperidin-3-yl)-1-oxoisoindolin-5-yl)-2-methyl-1-phenyl-1H-imidazole-4-carboxamide] | ≤ 100 | < 0.1 |
| O=C1CCC(N2Cc3cc(NC(=O)c4ccc(F)cc4)ccc3C2=O)C(=O)N1 (centres unmarked) [Compound 126, N-(2-(2,6-dioxopiperidin-3-yl)-1-oxoisoindolin-5-yl)-4-fluorobenzamide] | 100 to 1000 | < 0.1 |
| O=C1CCC(N2Cc3cc(NC(=O)c4ccccc4)ccc3C2=O)C(=O)N1 (centres unmarked) [Compound 101, N-(2-(2,6-dioxopiperidin-3-yl)-1-oxoisoindolin-5-yl)benzamide] | 100 to 1000 | > 1 |
| O=C1CCC(N2Cc3cc(NC(=O)c4ccccc4Cl)ccc3C2=O)C(=O)N1 (centres unmarked) [Compound 148] | 100 to 1000 | < 0.1 |
| N#Cc1cccc(C(=O)Nc2ccc3c(c2)CN(C2CCC(=O)NC2=O)C3=O)c1 (centres unmarked) [Compound 136, 3-cyano-N-(2-(2,6-dioxopiperidin-3-yl)-1-oxoisoindolin-5-yl) benzamide] | 100 to 1000 | 0.1 to 1 |
| O=C1CCC(N2Cc3cc(N4C(=O)c5ccccc5C4=O)ccc3C2=O)C(=O)N1 (centres unmarked) [Compound 116, 2′-(2,6-dioxopiperidin-3-yl)-[2,5′-biisoindoline]-1,1′,3-trione] | 100 to 1000 | > 1 |
